The source of these data is patent publication US12617770B2, “IRAK inhibitor and preparation method therefor and use thereof” (WUHAN CREATERNA SCIENCE AND TECHNOLOGY CO., LTD., priority 2019, dated 2026).

The target in the assay is T1, human IRAK4 (Homo sapiens, UniProt Q9NWZ3).
T1 construct: purchased Cama (so in the source)
T1 sequence (Q9NWZ3 1-460): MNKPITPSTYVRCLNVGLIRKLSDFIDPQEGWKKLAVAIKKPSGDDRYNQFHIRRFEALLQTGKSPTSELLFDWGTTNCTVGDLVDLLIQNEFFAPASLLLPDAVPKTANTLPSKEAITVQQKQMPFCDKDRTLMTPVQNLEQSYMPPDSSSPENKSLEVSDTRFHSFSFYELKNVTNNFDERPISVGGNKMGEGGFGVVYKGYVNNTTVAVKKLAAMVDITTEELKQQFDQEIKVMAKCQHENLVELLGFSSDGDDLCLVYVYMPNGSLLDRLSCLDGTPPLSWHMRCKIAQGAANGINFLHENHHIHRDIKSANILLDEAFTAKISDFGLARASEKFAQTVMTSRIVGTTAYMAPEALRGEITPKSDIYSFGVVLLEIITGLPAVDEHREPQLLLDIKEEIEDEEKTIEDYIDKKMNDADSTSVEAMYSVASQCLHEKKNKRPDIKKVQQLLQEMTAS
The experiment in a line: IRAK4 MSA (Mobility-Shift Assay) at Km concentration of ATP. The class given is biochemical. As to conditions: GST-IRAK4 1 nM, ATP 37 μM (Km); read-out: IC50 for inhibiting human IRAK4 activity. The method, then: A recombinant fusion protein of N-terminal GST (glutathione-S-transferase) and human IRAK4 was used as enzyme (GST-IRAK4, kinase IRAK4 (Cama, CAT No. 09-145)) at a final concentration of 1 nM; ATP (Sigma. CAT No. A7699-1G) was at a final concentration of 37 μM; • the substrates used for the kinase reaction were 5-FAM (5-carboxyfluorescein)-labeled polypeptide (5-FAM-[…]-COOH) and substrate peptide FAM-P8 (GL Biochem, CAT No. 112396) at final concentrations of 5 μM.
In this assay, 500 μM stock solutions of the compounds were prepared in 100% DMSO, and serially 4-fold diluted to the 10th concentration gradient with 100% DMSO, followed by a 10-fold dilution in the compound buffer (50 mM HEPES, pH 7.5, 0.00015% Brij-35) to give intermediate dilutions of the compounds at a final concentration of 10 μM−0.04 nM containing 10% DMSO. 5 μL of the intermediate dilution was transferred into a black 384-well plate.
IRAK4 was diluted to 2.5 nM in the kinase buffer (50 mM HEPES, pH 7.5, 0.00015% Brij-35, 2 mM DTT). 10 μL of the IRAK4 dilution was transferred to the 384-well plate and co-incubated with the compound for 10-15 min.
The substrate and ATP were diluted to 12.5 μM and 92.5 μM with reaction buffer (50 mM HEPES, pH 7.5, 0.00015% Brij-35, 10 mM MgCl2), respectively. 10 μL of the dilution was transferred to a 384-well plate and incubated at 28° C. for 1 h. The reaction was terminated by adding 25 μL of 50 mM EDTA to the 384-well plate.
The inhibition rate of IRAK4 by the compounds was calculated by measuring the rate of phosphorylated substrate using a Caliper EZ Reader (PerkinElmer) and the IC50 was calculated by XL-fit software. […] In particular, some exemplary compound activity values are as follows: […]

The structures appear in SMILES notation.

Usually IC50 stands for the concentration needed to halve the response being measured. As for `COc1cc2nn([C@H]3CC[C@](C)(O)CC3)cc2cc1NC(=O)c1cccc(C2CC2)[n+]1[O-]` [Compound 002, 2-cyclopropyl-6-((2-((1r,4r)-4-hydroxy-4-methylcyclohexyl)-6-methoxy-2H-indazol-5-yl)carbamoyl) Pyridine 1-oxide], the IC50 was 3.7 nM. With `Cc1cccc(C(=O)Nc2cc3cn([C@H]4CC[C@](C)(O)CC4)nc3cc2N(C)C)[n+]1[O-]` [Compound 010, 2-((6-(dimethylamino)-2-((1r,4r)-4-hydroxy-4-methylcyclohexyl)-2H-indazol-5-yl)carbamoyl)-6-methylpyridine 1-oxide], the IC50 turned out to be 11 nM.

For `COc1cc2nn([C@H]3CC[C@H](O)CC3)cc2cc1NC(=O)c1cccc(C(C)C)[n+]1[O-]` [Compound 015, 2-((2-((1r,4r)-4-hydroxycyclohexyl)-6-methoxy-2H-indazol-5-yl)carbamoyl)-6-isopropylpyridine 1-oxide], the IC50 was found to be 5.4 nM. The value for `Cc1cccc(C(=O)Nc2cc3cn([C@H]4CC[C@H](O)CC4)nc3cc2OCC2CC2)[n+]1[O-]` [Compound 019, 2-((6-(cyclopropylmethoxy)-2-((1r,4r)-4-hydroxycyclohexyl)-2H-indazol-5-yl)carbamoyl)-6-methylpyridine 1-oxide] was 8.1 nM. Regarding `COc1cc2nn([C@H]3CC[C@@](O)(C4CC4)CC3)cc2cc1NC(=O)c1cccc(C)[n+]1[O-]` [Compound 025, 2-((2-((1r,4r)-4-cyclopropyl-4-hydroxycyclohexyl)-6-methoxy-2H-indazol-5-yl)carbamoyl)-6-methylpyridine 1-oxide], the IC50 amounted to 13 nM. Consider `COc1cc2nn([C@H]3CC[C@@](O)(CC#N)CC3)cc2cc1NC(=O)c1cccc(C)[n+]1[O-]` [Compound 175, 2-((2-((1r,4r)-4-(cyanomethyl)-4-hydroxycyclohexyl)-6-methoxy-2H-indazol-5-yl)carbamoyl)-6-methylpyridine 1-oxide], for which the concentration for half-maximal inhibition (IC50) is 7.1 nM.

Turning to `COc1cc2nn([C@H]3CC[C@@](O)(CC#N)CC3)cc2cc1NC(=O)c1cccc(C2CC2)[n+]1[O-]` [Compound 176, 2-((2-((1r,4r)-4-(cyanomethyl)-4-hydroxycyclohexyl)-6-methoxy-2H-indazol-5-yl)carbamoyl)-6-cyclopropylpyridine 1-oxide], the IC50 was determined as 4.3 nM.

As to `C#C[C@]1(O)CC[C@H](n2cc3cc(NC(=O)c4cccc(C)[n+]4[O-])c(OC)cc3n2)CC1` [Compound 187, 2-((2-((1r,4r)-4-ethynyl-4-hydroxycyclohexyl)-6-methoxy-2H-indazol-5-yl)carbamoyl)-6-methylpyridine 1-oxide], the IC50 was 9.2 nM. The figure for `COc1cc2nn([C@H]3CC[C@@H](O)CC3)cc2cc1NC(=O)c1cccc(C2CC2)[n+]1[O-]` [Compound 218, 2-cyclopropyl-6-((2-((1s,4s)-4-hydroxycyclohexyl)-6-methoxy-2H-indazol-5-yl)carbamoyl)pyridine 1-oxide] is 8.3 nM; for `CCOc1cc2nn([C@H]3CC[C@@H](O)CC3)cc2cc1NC(=O)c1cccc(C)[n+]1[O-]` [Compound 220, 2-((6-ethoxy-2-((1s,4s)-4-hydroxycyclohexyl)-2H-indazol-5-yl)carbamoyl)-6-methylpyridine 1-oxide] it is 14 nM.

Turning to `COc1cc2nn(C3CCCC3)cc2cc1NC(=O)c1cccc(C)[n+]1[O-]` [Compound 284, 2-((2-cyclopentyl-6-methoxy-2H-indazol-5-yl)carbamoyl)-6-methylpyridine 1-oxide], the IC50 came out at 28 nM. The figure for `COc1cc2nn(C3CCCCC3)cc2cc1NC(=O)c1cccc(C)[n+]1[O-]` [Compound 285, 2-((2-cyclohexyl-6-methoxy-2H-indazol-5-yl)carbamoyl)-6-methylpyridine 1-oxide] is 5.9 nM. Take `COc1cc2nn(C3CCC(F)(F)CC3)cc2cc1NC(=O)c1cccc(C)[n+]1[O-]` [Compound 286, 2-((2-(4,4-difluorocyclohexyl)-6-methoxy-2H-indazol-5-yl)carbamoyl)-6-methylpyridine 1-oxide]: the IC50 came out at 14 nM. As for `Cc1cccc(C(=O)Nc2cc3cn([C@H]4CC[C@@](C)(O)CC4)nc3cc2N(C)C)[n+]1[O-]` [Compound 287, 2-((6-(dimethylamino)-2-((1s,4s)-4-hydroxy-4-methylcyclohexyl)-2H-indazol-5-yl)carbamoyl)-6-methylpyridine 1-oxide], the concentration for half-maximal inhibition (IC50) came to 13 nM.

With `COc1cc2nn([C@H]3CC[C@@H](O)CC3)cc2cc1NC(=O)c1cccc(C(C)C)[n+]1[O-]` [Compound 288, 2-((2-((1s,4s)-4-hydroxycyclohexyl)-6-methoxy-2H-indazol-5-yl)carbamoyl)-6-isopropylpyridine 1-oxide], the IC50 turned out to be 13 nM. For the compound `COc1cc2nn([C@H]3CC[C@](C)(O)CC3)cc2cc1NC(=O)c1cccc(NC2CC2)[n+]1[O-]` [Compound 289, 2-(cyclopropylamino)-6-((2-((1r,4r)-4-hydroxy-4-methylcyclohexyl)-6-methoxy-2H-indazol-5-yl)carbamoyl)pyridine 1-oxide], the half-maximal inhibitory concentration (IC50) was 1.7 nM.

As for `COc1cc2nn([C@H]3CC[C@](C)(C#N)CC3)cc2cc1NC(=O)c1cccc(C)[n+]1[O-]` [Compound 291, 2-((2-((1r,4r)-4-cyano-4-methylcyclohexyl)-6-methoxy-2H-indazol-5-yl)carbamoyl)-6-methylpyridine 1-oxide], the IC50 stood at 14 nM. `Cc1cccc(C(=O)Nc2cc3cn([C@H]4CC[C@@H](O)CC4)nc3cc2OCC2CC2)[n+]1[O-]` [Compound 292, 2-((6-(cyclopropylmethoxy)-2-((1s,4s)-4-hydroxycyclohexyl)-2H-indazol-5-yl)carbamoyl)-6-methylpyridine 1-oxide]: the IC50 was determined as 14 nM. The figure for `COc1cc2nn([C@H]3CC[C@](C)(O)CC3)cc2cc1NC(=O)c1cccc(C)n1` [Compound B, N-(2-((1r,4r)-4-hydroxy-4-methylcyclohexyl)-6-methoxy-2H-indazol-5-yl)-6-methylpicolinamide, reference compound] is 30 nM.
